One data set concerns MDA-MB-435s shSK3. In words: Transwell motility of cells not expressing SK3. Format: cell-based, human. The note with it: 10 nM to 300 nM; non-specific effect at 1 μM, FIG. 6F. The protocol: FIG. 6: JPH1701 (or Ohmline) activity on cell motility on cancerous MDA-MB-435s cells and on non cancerous MCF-10A cells. The motility was tested by transwell assay. Additionally, viability tests were performed using MTT assays. FIG. 6A-B) JPH1701 (the concentrations of JPH1701, for the FIG. 6A, are 0 (control condition), 10 nM, 100 nM, 300 nM and 1 μM) reduces motility (FIG. 6A) of MDA-MB-435s wild type (WT) cells from 10 nM without affecting viability (FIG. 6B) except at 10 μM. FIG. 6C-D) MCF-10A motility (FIG. 6C) and viability (FIG. 6D) are not affected by JPH1701 (the concentrations of JPH1701, for the FIG. 6C, are 0 (control condition), 10 nM, 100 nM, 300 nM and 1 μM). FIG. 6E-F) Effect on SK3 dependent motility.
MDA-MB-435s and HEK293 cells were transduced with lentiviral vector at multiplicities of infection (MOI) of 1 to 3 in the presence of polybrene (4 μg/ml, Sigma). The transduction rate for MDA-MB-435s determined by counting GFP cells was close to 90%. In order to selection one clone of HEK293-SK3/KCa2.3 limit dilution were realized and each clone was tested in patch clamp with apamin and edelfosine and by western blotting in order to control expression of SK3/KCa2.3 channel.
At least three independent experiments were each performed in triplicate.

The target of a further data set is T1, IKCa (Homo sapiens, UniProt O15554).
T1 construct: expressed in transfected cells; host or cells: HEK293
Put plainly: Whole-cell K+ currents in HEK293 cells expressing recombinant IKCa. Format: cell-based. The note with it: 10 μM, FIG. 9B. As to the method:
FIG. 9. Selectivity effect of JPH1701 on SKCa subtype and on IKCa channels. FIG. 9A) Example of whole-cell K^+ currents recorded in HEK293 cells expressing recombinants SK1, SK2, SK3 and IKCa channels before and after application of 10 μM JPH1701 (upper graphs: SK1 and SK2 respectively, bottom graphs: SK3 and IKCa respectively). Currents were generated by ramp protocol from −100 mV to +60 mV in 500 ms from a constant holding of 0 mV and with a pCa 6. FIG. 9B) Histograms showing the effect of 10 μM JPH1701 on SKCa (SK1, SK2, SK3) and IKCa current amplitudes recorded at 0 mV. […] For each channel (SK1, SK2, SK3 and IKCa) the left column (pale grey) represents the control result and the right column (dark grey) represents the result after JPH1701 application.
The selectivity of JPH1701 toward the others members of the SKCa/IKCa channels was tested. […] The experimental protocol was similar to the one used in FIG. 8. JPH1701 was tested for membrane potential from +60 mV to −100 mV on 500 msec.

The next data set concerns the target PhosphoLipase C (PLC). In words: PhosphoLipase C activity. Format: biochemical. The note with it: FIG. 11D. As to the method: FIG. 11: Effects of JPH1701 on PAF receptor, PLC and PKCs activities. FIG. 11A) Histogram showing the percentage of control specific binding of 3H-C16-PAF to recombinant PAF receptor obtained from membrane homogenates of CHO cells by 0.3 and 2 μM edelfosine and by 0.3 and 2 μM JPH1701. FIG. 11B) Histogram showing the percentage of control agonist response (% effect i.e: increase of intracellular calcium concentration) of 0.3 and 2 μM edelfosine and JPH1701 on PAF receptor normalized to the response induced by 100 nM C16-PAF. […] FIG. 11C-D) Dose responses curves showing the effect of JPH1701 on PKCs (FIG. 11C, PKCs are: alpha, Beta 1, Beta 2, Gamma, Delta, Epsilon, Zeta, Eta, Theta, Iota) and PhosphoLipase C (PLC) activities (FIG. 11D).

The test system of another data set is MDA-MB-435s. Put plainly: Cytotoxicity / cell viability (MTT, tetrazolium salt reduction).
In a further data set the target is SK3/KCa2.3 channel (Homo sapiens, UniProt Q9UGI6). Put plainly: Whole-cell patch clamp, apamin-sensitive current in MDA-MB-435s. Format: cell-based. On the set-up: effect of JPH1701 on the SK3 activity in MDA-MB-435s cells using patch clamp technique; endogenous in cells; host or cells: MDA-MB-435s wild type. As to the method:
FIG. 7: Effects of a 24 hours application of JPH1701 at 1 μM on whole cell current in MDA-MB-435s Wild Type (WT). FIG. 7A) Illustrations of currents recorded on MDA-MD-435s. On the top, current were recorded on MDA-MB-435s in control condition. At the bottom, current were representative of a cell which was treated with JPH1701 1 μM during 24 hours. FIG. 7B) Effects of JPH1701 on apamin-sensitive currents. Cells were incubated with JHP1701 at 1 μM during 24 hours then currents were measured in absence or with apamin, a specific blocker of the SK3/KCa2.3 channel. Histograms show the amplitude of currents inhibited by apamin. After JPH1701 treatment apamin-sensitive current were abolished. […]
Briefly, experiments were conducted using Axopatch 200B patch-clamp amplifier (Axon Instrument) and data, digitized with 1322-A Digidata converter (Axon Instrument), were stored on a computer using Clampex of pClamp 9.2 software (Axon Instru-ment). The patch-clamp data was analyzed using both Clampfit 9.2 and Origin 7.0 software (Microcal Inc., Northampton, Mass., USA).
The pipette solution for the whole-cell recordings contained (in mM): K-glutamate 125, KCl 20, MgCl2 1, Mg-ATP 1, HEPES 10, and pH was adjusted to 7.2 with KOH and various concentrations of CaCl2 and EGTA were added to obtain calculated pCa=7 (0.37 mM CaCl2 and 10 mM EGTA) or pCa=6.4 (0.7 mM CaCl2 and 1 mM EGTA). […]
Background: In patch-clamp work, channel activity is measured electrically.

Sequence of SK3/KCa2.3 channel (Q9UGI6 whole entry): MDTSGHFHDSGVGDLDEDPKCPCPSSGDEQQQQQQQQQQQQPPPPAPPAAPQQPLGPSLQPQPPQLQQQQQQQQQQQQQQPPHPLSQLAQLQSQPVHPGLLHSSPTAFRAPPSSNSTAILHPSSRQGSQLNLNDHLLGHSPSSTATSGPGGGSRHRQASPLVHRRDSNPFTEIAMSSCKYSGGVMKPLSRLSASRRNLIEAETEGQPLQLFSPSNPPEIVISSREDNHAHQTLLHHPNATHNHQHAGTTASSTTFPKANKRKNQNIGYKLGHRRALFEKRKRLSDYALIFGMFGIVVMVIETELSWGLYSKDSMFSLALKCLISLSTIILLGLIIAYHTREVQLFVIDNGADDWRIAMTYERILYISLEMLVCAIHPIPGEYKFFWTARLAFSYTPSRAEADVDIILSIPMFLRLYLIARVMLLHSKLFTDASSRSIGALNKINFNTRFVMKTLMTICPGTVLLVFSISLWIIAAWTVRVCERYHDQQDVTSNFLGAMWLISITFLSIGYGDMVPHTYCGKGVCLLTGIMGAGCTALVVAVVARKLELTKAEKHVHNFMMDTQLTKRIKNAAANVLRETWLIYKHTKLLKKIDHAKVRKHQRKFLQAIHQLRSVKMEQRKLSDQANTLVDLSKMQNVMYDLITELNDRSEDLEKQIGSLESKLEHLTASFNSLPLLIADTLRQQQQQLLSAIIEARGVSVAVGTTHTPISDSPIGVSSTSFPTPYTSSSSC
T1 sequence (O15554 whole entry): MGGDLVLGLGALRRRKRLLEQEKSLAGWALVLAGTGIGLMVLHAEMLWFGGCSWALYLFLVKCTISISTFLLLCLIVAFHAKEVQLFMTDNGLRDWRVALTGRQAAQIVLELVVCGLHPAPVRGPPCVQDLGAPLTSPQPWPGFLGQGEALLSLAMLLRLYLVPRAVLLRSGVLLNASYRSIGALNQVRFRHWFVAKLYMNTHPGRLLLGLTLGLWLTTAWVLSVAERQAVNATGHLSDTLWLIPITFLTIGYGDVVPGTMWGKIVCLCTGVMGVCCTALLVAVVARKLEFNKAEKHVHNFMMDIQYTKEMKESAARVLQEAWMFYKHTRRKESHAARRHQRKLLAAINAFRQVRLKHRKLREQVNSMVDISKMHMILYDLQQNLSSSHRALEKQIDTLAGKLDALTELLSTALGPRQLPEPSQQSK

As usually defined, the IC50 is the point on the concentration scale where inhibition reaches its midpoint. Take “hexadecyloxy-2-O-methyl-sn-glycerol-lactose [JPH1701]”: the “Effect on migration ability of cells not expressing SK3” value in the data set on MDA-MB-435s shSK3 was “does not affect”. Further, the “Effect on IKCa currents” value on IKCa is “inactive”. Further, the IC50 against PhosphoLipase C (PLC) is 7 µM; in the data set with MDA-MB-435s (read-out: Cytotoxicity IC50, Table 1), greater than 10 µM. Also, in the data set on MDA-MB-435s (Table 2, viability of MDA-MB-435s), the Toxicity entry was “No at 10 μM”. Besides, the “Effect on cell viability” value with MDA-MB-435s (at 10 nM to 1 μM, FIG. 6B) is “no effect on cell viability”. For the same substance, the “Effect on MDA-MB-435s proliferation” value in the data set on MDA-MB-435s (in vitro) was “no effect”. The “Apamin-sensitive current after treatment” value on SK3/KCa2.3 channel (1 μM for 24 h, FIG. 7B) is recorded as “totally abolished”. Moreover, the “Apamin-sensitive current in MDA-MB-435s” value at SK3/KCa2.3 channel (wild-type cells, residual current abolished by apamin) turned out to be 0.071 ± 0.215 pA/pF.

The values are drawn from patent US9161944B2, “Method for preventing cancer metastasis” (INSERM (INSTITUT NATIONAL DE LA SANTE ET DE LA SANTE ET DE …, priority 2010, dated 2015).
